Experimental data: patent publication US20090232838A1, “Ligands of melanocortin receptors” (priority 2005, published 2009)
Read-outs that look alike come from different tables or passages of the source.

Assays:
Assay type in all cases: cell-based
hMC1-R = molecular target: T1, hMC1-R (Homo sapiens, UniProt Q01726); test: cyclic AMP bioassay, hMC1-R
T1 construct: expressed in transfected cells; host or cells: CHO-K1

hMC3-R = molecular target: T2, hMC3-R (Homo sapiens, UniProt P41968); test: cyclic AMP bioassay, hMC3-R
T2 construct: expressed in transfected cells; host or cells: CHO-K1
T2 sequence (P41968 whole entry): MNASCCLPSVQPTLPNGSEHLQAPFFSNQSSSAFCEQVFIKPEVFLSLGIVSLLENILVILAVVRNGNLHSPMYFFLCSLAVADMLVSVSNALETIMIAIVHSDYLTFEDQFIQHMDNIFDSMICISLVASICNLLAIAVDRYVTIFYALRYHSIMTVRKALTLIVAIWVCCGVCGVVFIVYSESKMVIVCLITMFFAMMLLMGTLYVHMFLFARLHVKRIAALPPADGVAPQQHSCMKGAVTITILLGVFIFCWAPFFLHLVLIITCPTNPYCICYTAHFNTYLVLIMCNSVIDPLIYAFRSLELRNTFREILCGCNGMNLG

hMC4-R = molecular target: T3, hMC4-R (Homo sapiens, UniProt P32245); test: cyclic AMP bioassay, hMC4-R
T3 construct: expressed in transfected cells; host or cells: CHO-K1
T3 sequence (P32245 whole entry): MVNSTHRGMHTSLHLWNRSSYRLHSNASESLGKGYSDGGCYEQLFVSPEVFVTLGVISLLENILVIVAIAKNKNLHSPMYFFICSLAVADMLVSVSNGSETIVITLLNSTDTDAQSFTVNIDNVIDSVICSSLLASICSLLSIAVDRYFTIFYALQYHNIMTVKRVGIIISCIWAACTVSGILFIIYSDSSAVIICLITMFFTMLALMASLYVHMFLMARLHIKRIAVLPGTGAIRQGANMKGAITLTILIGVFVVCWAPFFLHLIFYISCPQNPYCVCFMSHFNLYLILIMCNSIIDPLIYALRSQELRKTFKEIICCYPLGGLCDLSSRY

hMC5-R = molecular target: T4, hMC5-R (Homo sapiens, UniProt P33032); test: cyclic AMP bioassay, hMC5-R
T4 construct: expressed in transfected cells; host or cells: CHO-K1
T4 sequence (P33032 whole entry): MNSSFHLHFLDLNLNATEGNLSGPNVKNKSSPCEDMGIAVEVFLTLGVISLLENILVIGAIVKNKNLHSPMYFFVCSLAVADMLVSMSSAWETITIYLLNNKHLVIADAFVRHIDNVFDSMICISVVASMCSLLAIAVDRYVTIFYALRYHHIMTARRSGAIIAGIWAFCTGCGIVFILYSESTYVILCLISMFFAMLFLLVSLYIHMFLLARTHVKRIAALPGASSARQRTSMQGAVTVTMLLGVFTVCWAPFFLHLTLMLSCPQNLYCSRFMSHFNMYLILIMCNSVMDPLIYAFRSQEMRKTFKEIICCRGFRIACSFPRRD

[1] = Table 3A, cAMP in CHO-K1 cells, agonist, read-out: EC50 hMC1-R
[2] = Table 3A, cAMP in CHO-K1 cells, antagonist potency by Schild analysis, read-out: Kb hMC3-R
[3] = Table 3A, cAMP in CHO-K1 cells, antagonist potency by Schild analysis, read-out: Kb hMC4-R
[4] = Table 3A, cAMP in CHO-K1 cells, agonist, read-out: EC50 hMC5-R

T1 sequence (Q01726 whole entry): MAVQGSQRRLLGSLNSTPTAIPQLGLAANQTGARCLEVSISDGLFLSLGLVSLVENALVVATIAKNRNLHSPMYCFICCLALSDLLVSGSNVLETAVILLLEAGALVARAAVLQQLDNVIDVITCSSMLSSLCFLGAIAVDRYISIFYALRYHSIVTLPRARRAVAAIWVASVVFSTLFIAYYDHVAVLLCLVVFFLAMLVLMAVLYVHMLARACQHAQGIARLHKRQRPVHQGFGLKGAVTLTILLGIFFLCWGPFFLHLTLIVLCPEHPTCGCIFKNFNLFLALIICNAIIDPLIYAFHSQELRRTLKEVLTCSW

Q: For `CCCC[C@H](NC(C)=O)C(=O)N[C@H]1CSSC[C@@H](C(=O)NCCC(=O)N[C@@H](Cc2ccc(O)cc2)C(=O)NCC(=O)N[C@@H](CCCNC(=N)N)C(=O)N[C@@H](CCCCN)C(=O)N[C@@H](CCCNC(=N)N)C(=O)N[C@@H](CCCNC(=N)N)C(=O)N[C@@H](CCCNC(=N)N)C(=O)N[C@@H](CCC(N)=O)C(=O)N[C@@H](CCCNC(=N)N)C(=O)N[C@@H](CCCNC(=N)N)C(=O)N[C@@H](CCCNC(=N)N)C(N)=O)NC(=O)[C@H](Cc2c[nH]c3ccccc23)NC(=O)[C@H](CCCNC(=N)N)NC(=O)[C@@H](Cc2ccccc2)NC(=O)[C@H](Cc2c[nH]cn2)NC(=O)[C@@H](C)NC1=O`, which EC50 (hMC1-R) is on record?
A: 0.00757 µM

Q: What about the EC50 (hMC3-R) of the same compound?
A: 0.00418 µM

Q: What about the EC50 (hMC4-R) of the same compound?
A: 0.0006 µM

Q: What about the EC50 (hMC5-R) of the same compound?
A: 1.79 µM

Q: With `CCCC[C@H](NC(C)=O)C(=O)N[C@H]1CC(=O)NCCCC[C@@H](C(=O)NCCC(=O)NCCC(=O)N[C@@H](Cc2ccc(O)cc2)C(=O)NCC(=O)N[C@@H](CCCNC(=N)N)C(=O)N[C@@H](CCCCN)C(=O)N[C@@H](CCCCN)C(=O)N[C@@H](CCCNC(=N)N)C(=O)N[C@@H](CCCNC(=N)N)C(=O)N[C@@H](CCC(N)=O)C(=O)N[C@@H](CCCNC(=N)N)C(=O)N[C@@H](CCCNC(=N)N)C(=O)N[C@@H](CCCNC(=N)N)C(N)=O)NC(=O)[C@H](Cc2c[nH]c3ccccc23)NC(=O)[C@H](CCCNC(=N)N)NC(=O)[C@@H](Cc2ccc3ccccc3c2)NC(=O)[C@H](Cc2c[nH]cn2)NC1=O` as the compound, how does the EC50 (hMC1-R; [1]) read?
A: 0.00139 µM

Q: And the Kb (hMC3-R; [2])?
A: 0.0162 µM

Q: And the Kb (hMC4-R; [3])?
A: 0.00794 µM

Q: What about the EC50 (hMC5-R; [4]) of the same compound?
A: 0.000839 µM

Q: Which results are given for `CC(=O)N[C@H]1CSSC[C@@H](C(=O)N2CCC[C@H]2C(=O)N2CCC[C@H]2C(=O)N[C@@H](CCCCN)C(=O)N[C@@H](CC(=O)O)C(=O)NCCC(=O)N[C@@H](Cc2ccc(O)cc2)C(=O)NCC(=O)N[C@@H](CCCNC(=N)N)C(=O)N[C@@H](CCCCN)C(=O)N[C@@H](CCCCN)C(=O)N[C@@H](CCCNC(=N)N)C(=O)N[C@@H](CCCNC(=N)N)C(=O)N[C@@H](CCC(N)=O)C(=O)N[C@@H](CCCNC(=N)N)C(=O)N[C@@H](CCCNC(=N)N)C(=O)N[C@@H](CCCNC(=N)N)C(N)=O)NC(=O)[C@H](C)NC(=O)[C@H](Cc2c[nH]c3ccccc23)NC(=O)[C@H](CCCNC(=N)N)NC(=O)[C@@H](Cc2ccc3ccccc3c2)NC(=O)[C@H](Cc2c[nH]cn2)NC(=O)[C@H](CCC(=O)O)NC1=O`?
A: EC50 (hMC1-R; [1]): 0.0063 µM; Kb (hMC3-R; [2]): 0.07 µM; Kb (hMC4-R; [3]): 0.00166 µM; EC50 (hMC5-R; [4]): 0.0382 µM

Q: What does the source list for `CC(=O)N[C@H]1CSSC[C@@H](C(=O)N2CCC[C@H]2C(=O)N2CCC[C@H]2C(=O)N[C@@H](CCCCN)C(=O)N[C@@H](CC(=O)O)C(=O)NCCC(=O)N[C@@H](Cc2ccc(O)cc2)C(=O)NCC(=O)N[C@@H](CCCNC(=N)N)C(=O)N[C@@H](CCC(N)=O)C(=O)N[C@@H](CCCCN)C(=O)N[C@@H](CCCCN)C(=O)N[C@@H](CCCNC(=N)N)C(=O)N[C@@H](CCCNC(=N)N)C(=O)N[C@@H](CCCNC(=N)N)C(=O)N[C@@H](CCCNC(=N)N)C(=O)N[C@@H](CCCNC(=N)N)C(N)=O)NC(=O)[C@H](C)NC(=O)[C@H](Cc2c[nH]c3ccccc23)NC(=O)[C@H](CCCNC(=N)N)NC(=O)[C@@H](Cc2ccc3ccccc3c2)NC(=O)[C@H](Cc2c[nH]cn2)NC(=O)[C@H](CCC(=O)O)NC1=O`?
A: EC50 (hMC1-R; [1]): 0.012 µM; Kb (hMC3-R; [2]): 0.0137 µM; Kb (hMC4-R; [3]): 0.00938 µM; EC50 (hMC5-R; [4]): 0.0542 µM

Q: What does the source list for `CC(=O)N[C@H]1CSSC[C@@H](C(=O)N2CCC[C@H]2C(=O)N2CCC[C@H]2C(=O)N[C@@H](CCCCN)C(=O)N[C@@H](CC(=O)O)C(=O)NCCOCCOCC(=O)N[C@@H](Cc2ccc(O)cc2)C(=O)NCC(=O)N[C@@H](CCCNC(=N)N)C(=O)N[C@@H](CCCCN)C(=O)N[C@@H](CCCCN)C(=O)N[C@@H](CCCNC(=N)N)C(=O)N[C@@H](CCCNC(=N)N)C(=O)N[C@@H](CCC(N)=O)C(=O)N[C@@H](CCCNC(=N)N)C(=O)N[C@@H](CCCNC(=N)N)C(=O)N[C@@H](CCCNC(=N)N)C(N)=O)NC(=O)[C@H](C)NC(=O)[C@H](Cc2c[nH]c3ccccc23)NC(=O)[C@H](CCCNC(=N)N)NC(=O)[C@@H](Cc2ccc3ccccc3c2)NC(=O)[C@H](Cc2c[nH]cn2)NC(=O)[C@H](CCC(=O)O)NC1=O`?
A: EC50 (hMC1-R; [1]): 0.0121 µM; Kb (hMC3-R; [2]): 0.0303 µM; Kb (hMC4-R; [3]): 0.00181 µM; EC50 (hMC5-R; [4]): 0.07 µM

Q: What does the source list for `CCCC[C@H](NC(C)=O)C(=O)N[C@H]1CC(=O)NCCCC[C@@H](C(=O)NCCOCCOCC(=O)NCCOCCOCC(=O)N[C@@H](Cc2ccc(O)cc2)C(=O)NCC(=O)N[C@@H](CCCNC(=N)N)C(=O)N[C@@H](CCCCN)C(=O)N[C@@H](CCCCN)C(=O)N[C@@H](CCCNC(=N)N)C(=O)N[C@@H](CCCNC(=N)N)C(=O)N[C@@H](CCC(N)=O)C(=O)N[C@@H](CCCNC(=N)N)C(=O)N[C@@H](CCCNC(=N)N)C(=O)N[C@@H](CCCNC(=N)N)C(N)=O)NC(=O)[C@H](Cc2c[nH]c3ccccc23)NC(=O)[C@H](CCCNC(=N)N)NC(=O)[C@@H](Cc2ccc3ccccc3c2)NC(=O)[C@H](Cc2c[nH]cn2)NC1=O`?
A: EC50 (hMC1-R; [1]): 0.00323 µM; Kb (hMC3-R; [2]): 0.00897 µM; Kb (hMC4-R; [3]): 0.00461 µM; EC50 (hMC5-R; [4]): 0.00286 µM

Q: How did the EC50 (hMC1-R) turn out when `CC(=O)N[C@H]1CSSC[C@@H](C(=O)N2CCC[C@H]2C(=O)N2CCC[C@H]2C(=O)N[C@@H](CCCCN)C(=O)N[C@@H](CC(=O)O)C(=O)NCCC(=O)N[C@@H](Cc2ccc(O)cc2)C(=O)NCC(=O)N[C@@H](CCCNC(=N)N)C(=O)N[C@@H](CCCCN)C(=O)N[C@@H](CCCCN)C(=O)N[C@@H](CCCNC(=N)N)C(=O)N[C@@H](CCCNC(=N)N)C(=O)N[C@@H](CCC(N)=O)C(=O)N[C@@H](CCCNC(=N)N)C(=O)N[C@@H](CCCNC(=N)N)C(=O)N[C@@H](CCCNC(=N)N)C(N)=O)NC(=O)[C@H](C)NC(=O)[C@H](Cc2ccc3ccccc3c2)NC(=O)[C@H](CCCNC(=N)N)NC(=O)[C@@H](Cc2ccc3ccccc3c2)NC(=O)[C@H](Cc2c[nH]cn2)NC(=O)[C@H](CCC(=O)O)NC1=O` was run?
A: 0.0297 µM

Q: And the Kb (hMC3-R)?
A: 0.0256 µM

Q: What about the Kb (hMC4-R) of the same compound?
A: 0.00737 µM

Q: What about the EC50 (hMC5-R) of the same compound?
A: 0.0829 µM

Q: `CC(=O)N[C@H]1CSSC[C@@H](C(=O)N2CCC[C@H]2C(=O)N2CCC[C@H]2C(=O)N[C@@H](CCCCN)C(=O)N[C@@H](CC(=O)O)C(=O)NCCC(=O)N[C@@H](Cc2ccc(O)cc2)C(=O)NCC(=O)N[C@@H](CCCNC(=N)N)C(=O)N[C@@H](CCCNC(=N)N)C(=O)N[C@@H](CCCCN)C(=O)N[C@@H](CCCNC(=N)N)C(=O)N[C@@H](CCCNC(=N)N)C(=O)N[C@@H](CCC(N)=O)C(=O)N[C@@H](CCCNC(=N)N)C(=O)N[C@@H](CCCNC(=N)N)C(=O)N[C@@H](CCCNC(=N)N)C(N)=O)NC(=O)[C@H](C)NC(=O)[C@H](Cc2cccc3ccccc23)NC(=O)[C@H](CCCNC(=N)N)NC(=O)[C@@H](Cc2ccc3ccccc3c2)NC(=O)[C@H](Cc2c[nH]cn2)NC(=O)[C@H](CCC(=O)O)NC1=O` was tested. Which EC50 (hMC1-R) did it give?
A: 0.029 µM

Q: And the Kb (hMC3-R)?
A: 0.0226 µM

Q: What about the Kb (hMC4-R) of the same compound?
A: 0.0167 µM

Q: And the EC50 (hMC5-R)?
A: 0.173 µM

Q: `CC(=O)N[C@H]1CSSC[C@@H](C(=O)N2CCC[C@H]2C(=O)N2CCC[C@H]2C(=O)N[C@@H](CCCCN)C(=O)N[C@@H](CC(=O)O)C(=O)NCCC(=O)N[C@@H](CCCNC(=N)N)C(=O)N[C@@H](CCCNC(=N)N)C(=O)N[C@@H](CCCNC(=N)N)C(=O)N[C@@H](CCCNC(=N)N)C(=O)N[C@@H](CCCNC(=N)N)C(=O)N[C@@H](CCCNC(=N)N)C(=O)N[C@@H](CCC(N)=O)C(=O)N[C@@H](CCCNC(=N)N)C(=O)N[C@@H](CCCNC(=N)N)C(=O)N[C@@H](CCCNC(=N)N)C(N)=O)NC(=O)[C@H](C)NC(=O)[C@H](Cc2cccc3ccccc23)NC(=O)[C@H](CCCNC(=N)N)NC(=O)[C@@H](Cc2ccc3ccccc3c2)NC(=O)[C@H](Cc2c[nH]cn2)NC(=O)[C@H](CCC(=O)O)NC1=O` was tested. Which EC50 (hMC1-R) did it give?
A: 0.093 µM

Q: And the Kb (hMC3-R)?
A: 0.071 µM

Q: What about the Kb (hMC4-R) of the same compound?
A: 0.0159 µM

Q: And the EC50 (hMC5-R)?
A: > 10 µM
